According to US20220105051A1, “COMPOUNDS FOR INCREASING MHC-I EXPRESSION AND MODULATING HISTONE DEACETYLASE ACTIVITY” (Cava Healthcare Inc., priority 2019, published 2022):
Entries after “also recorded” stand apart in the source; their conditions may differ.

Tested on: CD4+ and CD8+ T cells
Experiment: Analysis of tumour-infiltrating lymphocytes
Format: in vivo, C57BL/6 mice
Conditions: after 12 days of treatment, flow cytometry
Method: The metastatic cell line, A9, was grown in the DMEM, as previously described without, the addition of antibiotics (penicillin and streptomycin, P/S). Once cells reached 75-80% confluence, they were trypsinized (0.05%, Gibco) and washed with HBSS (Hanks balanced salt solution). The cells were counted using the Bio-RAD TC20 automated cell counter and suspended to a concentration of […] in HBSS. Thirty-two synergistic female C57BL/6 mice, between the ages 6-8 weeks, were subcutaneously injected in the right flank with 50 μL containing 5×10^4 A9 metastatic tumour cells. Seven days following tumour inoculation i.p. treatment began daily for 12 days. Four treatment groups were studied, with eight animals per group. […] Body weights were measured three times a week and once tumours developed they were measured with calipers and tumour volume was calculated. Twelve days after starting treatment, mice were euthanized and tumours were collected and weighed. The tumours were then processed for flow cytometry analysis. Tumours were cut into small pieces and incubated RPMI (Gibco; with P/S 0.5%, Sodium pyruvate 1%, and L-glutamine 1%) and 3 mg/mL collagenase A (Roche) for one hour at 37° C. with shaking. Dissociated tumour cells were passed through a 100 μm filter and spun down at 15,000×RCF for 3 minutes. The pellet was washed once in FACs buffer (2% FBS in PBS) and spun down. The pellet was next suspended in red blood cell (RBC) lysis buffer and kept at room temperature for 5 minutes before being neutralized by the addition of 5 ml of PBS and spun down. If pellets were still found to contain RBCs this step was repeated. Once all RBCs were removed cells were suspended in FACs buffer to a concentration of 10^7 cells/mL. A total volume of 200 ul of cells from each tumour were added to a 96 well plate (Falcon) and incubated with Fc Blocker (Biolegend, 1:400) for twenty minutes at 4° C. The 96 well plate was spun down at 1,200 rmp for three minutes and supernatant was removed. The cells were then suspended in 150 ul of FACs buffer containing anti-CD8a (PE-Cy7, 1:200, eBioscience) and CD4 (APC, 1:200, Biolegend) antibodies and incubated at 4° Celsius for 20 minutes. The cells were washed twice and spun down using FACs buffer before being to flow cytometry tubes in a final volume of 200 ul of FACs buffer containing 7AAD (Biolegend 1:200). Flow cytometry was performed on LSRII (BDBiosciences) and analysis was done using FlowJo (Flow cytometry Analysis Software).
Analysis of tumour-infiltrating lymphocytes (TILs). Tumour-infiltrating T lymphocyte (either CD4^+ or CD8^+ T cells) infiltration was evaluated in tumours of mice following 2-week treatment with either compounds or controls. Tumours at the site of initial injection were removed from tumour-bearing mice. Following tumour dissociation in the presence of collagenase A (Roche) and erythrocyte lysis, the tumour cells were then washed and prepared as single-cell suspensions to detect TILs. Before staining with antibodies, the cells were incubated with Fc Blocker (Ebiosciences) for 20 minutes at 4° C. The tumour cells were then washed and stained with anti-CD4-APC (Biolegend), anti-CD8-PECy7 (eBiosciences) and 7-AAD (Biolegend) viability stain. Using flow cytometry, 7-AAD positive dead cells were gated out and the remaining population was assessed for CD4^+ and CD8^+ expression. Data were acquired using a BD™ LSR II flow cytometer (BD Biosciences) with FACSDiva™ software and analyzed with FlowJo software (Treestar).

In the case of CC(C)=CCCCc1ccc(C)cc1O [P02-113], the “CD4+ T cell infiltration of tumours” value was “no significant infiltration or difference; also recorded: did not appear to increase” and the “CD8+ T cell (CTL) infiltration of tumours” value was “no significant change in CTL infiltration”.
For COc1ccc(C(C)CCC=C(C)C)c(O)c1 (stereo not shown) [P03-97-1], the “CD4+ T cell infiltration of tumours” value was “no significant infiltration or difference; also recorded: did not appear to increase” and the “CD8+ T cell (CTL) infiltration of tumours” value was “greatest CD8+ infiltration; also recorded: increase in the CTL infiltration”.
